Test results: patent US20260337153A1, “IONIZABLE AMINE LIPIDS” (Intellia Therapeutics, Inc., priority 2023, published 2026)

System: rat TTR gene
Test: In vivo editing of TTR in rat liver after LNP delivery (NGS, % editing)
Parameters: species or system rat (Sprague-Dawley)
Settings: for Mean % editing in rat liver: NGS, dose 0.03 mpk, LNP with G000534 sgRNA and Cas9 mRNA 1:2 w/w, 3% C13 Ether (Compound 53: 3% PEG2K-DMG), N=5 (Compound 33: N=4)
How it was run: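 Four-component LNPs (ionizable amine lipid, DSPC, cholesterol, PEG lipid) carried Cas9 mRNA and a chemically modified sgRNA against rat TTR, made by impinging jet mixing at an N:P near 6. They were injected into the lateral tail vein of female Sprague-Dawley rats. Liver genomic DNA collected at 6 or 7 days was amplicon-sequenced on Illumina MiSeq to calculate percent indels.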

[1] = Experiment 12, 0.04 mpk, LNP with PEG2K-DMG
[2] = Experiment 14, 0.03 mpk, LNP with C13 Ether
[3] = Experiment 7, 0.1 mpk, LNP with PEG2K-DMG
[4] = Experiment 10, 0.1 mpk, LNP with PEG2K-DMG
[5] = Experiment 11, 0.1 mpk, LNP with PEG2K-DMG
[6] = Experiment 13, 0.03 mpk, LNP with PEG2K-DMG
[7] = Table 8, 0.03 mpk, LNP with C13 Ether
[8] = Experiment 1, 0.1 mpk, LNP with PEG2K-DMG
[9] = Experiment 2, 0.1 mpk, LNP with PEG2K-DMG
[10] = Experiment 3, 0.1 mpk, LNP with PEG2K-DMG
[11] = Table 6, 0.03 mpk, PEG lipid C13 Ether
[12] = Table 6, 0.03 mpk, PEG lipid C14 Ether
[13] = Table 6, 0.03 mpk, PEG lipid PEG2K-DMG

## CCCCCCCCC(CCCCCCCC)OC(=O)CCCC(=O)OCC(COC(=O)CCCC(=O)OC(CCCCCCCC)CCCCCCCC)COC(=O)OCCCN1CCCCC1 [Compound 32, di(heptadecan-9-yl) O,O′-(2-((((3-(piperidin-1-yl)propoxy)carbonyl)oxy)methyl)propane-1,3-diyl) diglutarate]
[1]
  Mean % editing: 1.2%

## CCCCCCCCC(CCCCCCCC)OC(=O)CCCC(=O)OCC(COC(=O)CCCC(=O)OC(CCCCCCCC)CCCCCCCC)COC(=O)OCCCN1CCCC1 [Compound 33, di(heptadecan-9-yl) O,O′-(2-((((3-(pyrrolidin-1-yl)propoxy)carbonyl)oxy)methyl)propane-1,3-diyl) diglutarate]
[1]
  Mean % editing: 20.0%
  Mean % editing in rat liver: 12.2%

## CCCCCCCCC(CCCCCCCC)OC(=O)CCCC(=O)OCC(COC(=O)CCCC(=O)OC(CCCCCCCC)CCCCCCCC)COC(=O)CCCN(C)C [Compound 34, O,O′-(2-(((4-(dimethylamino)butanoyl)oxy)methyl)propane-1,3-diyl) di(heptadecan-9-yl) diglutarate]
[2]
  Mean % editing: 14.9%

## CCCCCCCCC(CCCCCCCC)OC(=O)CCCC(=O)OCC(COC(=O)CCCC(=O)OC(CCCCCCCC)CCCCCCCC)OC(=O)NCCN(CC)CC [Compound 35, O,O′-(2-(((2-(diethylamino)ethyl)carbamoyl)oxy)propane-1,3-diyl) di(heptadecan-9-yl) diglutarate]
[2]
  Mean % editing: 10.3%

## CCCCCCCCC(CCCCCCCC)OC(=O)CCCC(=O)OCC(C)(COC(=O)CCCC(=O)OC(CCCCCCCC)CCCCCCCC)COC(=O)NCCN(CC)CC [Compound 36, O,O′-(2-((((2-(diethylamino)ethyl)carbamoyl)oxy)methyl)-2-methylpropane-1,3-diyl) di(heptadecan-9-yl) diglutarate]
[1]
  Mean % editing: 27.4%

## CCCCCCC(CCCCCC)OC(=O)CCCC(=O)OCC(COC(=O)CCCC(=O)OC(CCCCCC)CCCCCC)COC(=O)NCCN(CC)CC [Compound 37, O,O′-(2-((((2-(diethylamino)ethyl)carbamoyl)oxy)methyl)propane-1,3-diyl) di(tridecan-7-yl) diglutarate]
[1]
  Mean % editing: 38.1%

## CCCCCCCCC(CCCCCCCC)C(=O)OCC(COC(=O)NCCN(CC)CC)COC(=O)C(CCCCCCCC)CCCCCCCC [Compound 40, 2-((((2-(diethylamino)ethyl)carbamoyl)oxy)methyl)propane-1,3-diyl bis(2-octyldecanoate)]
[2]
  Mean % editing: 1.0%

## CCCCCCCCCCCC(=O)OCC(COC(=O)CCC(OCCCCCCCC)OCCCCCCCC)COC(=O)OCCCN(CC)CC (centres unmarked) [Compound 41, 3-((4,4-bis(octyloxy)butanoyl)oxy)-2-((((3-(diethylamino)propoxy)carbonyl)oxy)methyl)propyl Dodecanoate]
[3]
  Mean % editing: 5.8%

## CCCCCCCCOC(CCC(=O)OCC(COC(=O)CC(CCCC)CCCCCC)COC(=O)OCCCN(CC)CC)OCCCCCCCC (centres unmarked) [Compound 43, 3-((4,4-bis(octyloxy)butanoyl)oxy)-2-((((3-(diethylamino)propoxy)carbonyl)oxy)methyl)propyl 3-butylnonanoate]
[3]
  Mean % editing: 57.5%

## CCCCCCCCOC(CCC(=O)OCC(COC(=O)NCCN(CC)CC)COC(=O)C(CCCC)CCCCCC)OCCCCCCCC (centres unmarked) [Compound 48, 3-((4,4-bis(octyloxy)butanoyl)oxy)-2-((((2-(diethylamino)ethyl)carbamoyl)oxy)methyl)propyl 2-butyloctanoate]
[3]
  Mean % editing: 55.0%

## CCCCC/C=C\C/C=C\CCCCCCCC(=O)OCC(COC(=O)CCCC(=O)OC(CCCCCCCC)CCCCCCCC)COC(=O)N(C)CCN(CC)CC (centres unmarked) [Compound 49, 3-(((2-(diethylamino)ethyl)(methyl)carbamoyl)oxy)-2-((((9Z,12Z)-octadeca-9,12-dienoyl)oxy)methyl)propyl heptadecan-9-yl Glutarate]
[4]
  Mean % editing: 47.1%

## CCCCC/C=C\C/C=C\CCCCCCCC(=O)OCC(COC(=O)CCCC(=O)OC(CCCCCCCC)CCCCCCCC)COC(=O)NCCN1CCCCCC1 (centres unmarked) [Compound 50, 3-(((2-(azepan-1-yl)ethyl)carbamoyl)oxy)-2-((((9Z,12Z)-octadeca-9,12-dienoyl)oxy)methyl)propyl heptadecan-9-yl Glutarate]
[4]
  Mean % editing: 53.1%

## CCCCCCCCC(CCCCCCCC)OC(=O)CCCCCC(=O)OCC(CCCCCCCCC(=O)OCC(CCCC)CCCCCC)COC(=O)NCCN(CC)CC (centres unmarked) [Compound 51, 1-(11-((2-butyloctyl)oxy)-2-((((2-(diethylamino)ethyl)carbamoyl)oxy)methyl)-11-oxoundecyl) 7-(heptadecan-9-yl) heptanedioate]
[5]
  Mean % editing: 60.0%

## CCCCCCCCC(CCCCCCCC)OC(=O)CCCCCCC(=O)OCC(COC(=O)CCCCCCC(=O)OC(CCCCCCCC)CCCCCCCC)COC(=O)NCCN(CC)CC [Compound 52, O′1,O1-(2-((((2-(diethylamino)ethyl)carbamoyl)oxy)methyl)propane-1,3-diyl) 8,8′-di(heptadecan-9-yl) di(octanedioate)]
[6]
  Mean % editing: 9.0%
  Mean % editing in rat liver: 11.9%
[7]
  Mean % editing: 7.0%

## CCCCC/C=C\C/C=C\CCCCCCCC(=O)OCC(COC(=O)CCC(OCCCCCCCC)OCCCCCCCC)COC(=O)OCCCN(CC)CC (centres unmarked) [Compound 53]
[8]
  Mean % editing: 38.6%
[9]
  Mean % editing: 55.2%
[10]
  Mean % editing: 41.4%
Experiment 4, 0.1 mpk, LNP with PEG2K-DMG
  Mean % editing: 41.8%
Experiment 5, 0.1 mpk, LNP with PEG2K-DMG
  Mean % editing: 42.8%
Experiment 6, 0.1 mpk, LNP with PEG2K-DMG
  Mean % editing: 47.1%
[3]
  Mean % editing: 31.5%
Experiment 8, 0.1 mpk, LNP with PEG2K-DMG
  Mean % editing: 47.8%
Experiment 9, 0.1 mpk, LNP with PEG2K-DMG
  Mean % editing: 42.6%
[4]
  Mean % editing: 44.2%
[5]
  Mean % editing: 42.0%
[6]
  Mean % editing: 8.5%
  Mean % editing in rat liver: 9.9%
[11]
  Mean % editing: 7.5%
[12]
  Mean % editing: 4.2%
[13]
  Mean % editing: 9.6%

## CCCCC/C=C\C/C=C\CCCCCCCC(=O)OCC(COC(=O)CCC(OCCCCCCCC)OCCCCCCCC)COC(=O)NCCN(CC)CC (centres unmarked) [Compound 54]
[8]
  Mean % editing: 36.9%

## CCCCCCCCCOC(=O)CCCCCCCN(CCO)CCCCCCCC(=O)OC(CCCCCCCC)CCCCCCCC [Compound 55]
[5]
  Mean % editing: 13.2%

## CCCCC/C=C\C/C=C\CCCCCCCC(=O)OCC(COC(=O)CCCC(=O)OC(CCCCCCCC)CCCCCCCC)COC(=O)OCCCN(CC)CC (centres unmarked) [Compound 56]
[9]
  Mean % editing: 50.9%
[4]
  Mean % editing: 53.0%

## CCCCC/C=C\C/C=C\CCCCCCCC(=O)OCC(COC(=O)CCCCCC(=O)OC(CCCCCCCC)CCCCCCCC)COC(=O)OCCCN(CC)CC (centres unmarked) [Compound 57]
[9]
  Mean % editing: 46.7%
[10]
  Mean % editing: 39.5%

## CCCCC/C=C\C/C=C\CCCCCCCC(=O)OCC(COC(=O)CCCC(=O)OC(CCCCCCCC)CCCCCCCC)COC(=O)NCCN(CC)CC (centres unmarked) [Compound 58]
[8]
  Mean % editing: 44.7%
[9]
  Mean % editing: 60.4%
[4]
  Mean % editing: 56.5%

## CCCCC/C=C\C/C=C\CCCCCCCC(=O)OCC(COC(=O)CCCCCC(=O)OC(CCCCCCCC)CCCCCCCC)COC(=O)NCCN(CC)CC (centres unmarked) [Compound 59]
[8]
  Mean % editing: 36.7%
[9]
  Mean % editing: 53.4%

## CCCCCCCCC(CCCCCCCC)OC(=O)CCCCCCC(=O)OCC(COC(=O)CCCCCCC(=O)OC(CCCCCCCC)CCCCCCCC)COC(=O)OCCCN(CC)CC [Compound 60]
[6]
  Mean % editing: 8.1%
[11]
  Mean % editing: 10.1%
[12]
  Mean % editing: 6.4%
[13]
  Mean % editing: 12.0%

## CCCCCCCCC(CCCCCCCC)OC(=O)CCCCCCC(=O)OCC(COC(=O)CCCCCCC(=O)OC(CCCCCCCC)CCCCCCCC)COC(=O)NCCCN(CC)CC [Compound 61]
[6]
  Mean % editing: 0.2%

## CCCCCCCCC(CCCCCCCC)CC(=O)OCCC(=O)OCC(COC(=O)CCCC(=O)OC(CCCCCCCC)CCCCCCCC)COC(=O)NCCN(CC)CC (centres unmarked) [Compound 63, 3-(((2-(diethylamino)ethyl)carbamoyl)oxy)-2-(((3-((3-octylundecanoyl)oxy)propanoyl)oxy)methyl)propyl heptadecan-9-yl Glutarate]
[7]
  Mean % editing: 0.1%

## CCCCCCCCC(CCCCCCCC)OC(=O)CCCCCC(=O)OCC(COC(=O)CCCCCC(=O)OC(CCCCCCCC)CCCCCCCC)COC(=O)OCCCN1CCCC1 [Compound 64, 7,7′-di(heptadecan-9-yl) O′1,O1-(2-((((3-(pyrrolidin-1-yl)propoxy)carbonyl)oxy)methyl)propane-1,3-diyl) di(heptanedioate)]
  Mean % editing in rat liver: 2.0%

## CCCCCCCCC(CCCCCCCC)OC(=O)CCCCCCC(=O)OCC(COC(=O)CCCCCCC(=O)OC(CCCCCCCC)CCCCCCCC)COC(=O)OCCCN1CCCC1 [Compound 65, 8,8′-di(heptadecan-9-yl) O′1,O1-(2-((((3-(pyrrolidin-1-yl)propoxy)carbonyl)oxy)methyl)propane-1,3-diyl) di(octanedioate)]
  Mean % editing in rat liver: 4.5%

## CCCCCCCCC(CCCCCCCC)OC(=O)CCCCCCC(=O)OCC(CC)(COC(=O)CCCCCCC(=O)OC(CCCCCCCC)CCCCCCCC)COC(=O)NCCN(CC)CC [Compound 66, O′1,O1-(2-((((2-(diethylamino)ethyl)carbamoyl)oxy)methyl)-2-ethylpropane-1,3-diyl) 8,8′-di(heptadecan-9-yl) di(octanedioate)]
  Mean % editing in rat liver: 9.5%
